{
  "source": "patent US8822754B2",
  "about": "“Ecdysone receptor-based inducible gene expression system” (Intrexon Corporation, priority 2000, dated 2014)",
  "key": {"[1]": {"tested_on": "CfVgRXR + MmRXR", "assay": "Transactivation of reporter genes through switch 1.9 in CHO cells", "assay_type": "cell-based, Choristoneura fumiferana", "conditions": "switch 1.9 CfVgRXR + MmRXR, pIND(SP1)LacZ", "description": "This example was prepared in the same way as switch 1.8 except DinEcR was replaced with a truncated CfEcR comprising a partial A/B domain and the complete CDEF domains [SEQ ID NO: 62 (polynucleotide) and SEQ ID NO: 63 (polypeptide)].\nThe cells were harvested and reporter activity was assayed.\n(§1) Cells were harvested 24-48 hr after adding ligands. […] Twenty μl of lysate was assayed."}, "[2]": {"tested_on": "GAL4USP + VP16CfEcR", "assay": "Transactivation of reporter genes through switch 1.5 in 3T3 cells", "assay_type": "cell-based, Choristoneura fumiferana", "conditions": "switch 1.5 GAL4USP + VP16CfEcR, pGAL4RELuc", "description": "This construct was prepared in the same way as switch 1.3 except MmRXRDEF was replaced with CfUSPDEF (SEQ ID NO: 58).\n(§2) The cells were plated when they reached 50% confluency.\nas §1"}, "[3]": {"target": "T1, DmVgRXR + MmRXR (Drosophila melanogaster, UniProt P34021, E282G/G283S/G286V)", "T1 construct": "host or cells: CHO, NIH3T3, 293 or CV1 cells (one cell line per assay)", "T1 sequence (P34021 whole entry E282G/G283S/G286V, the tested form may be a part)": "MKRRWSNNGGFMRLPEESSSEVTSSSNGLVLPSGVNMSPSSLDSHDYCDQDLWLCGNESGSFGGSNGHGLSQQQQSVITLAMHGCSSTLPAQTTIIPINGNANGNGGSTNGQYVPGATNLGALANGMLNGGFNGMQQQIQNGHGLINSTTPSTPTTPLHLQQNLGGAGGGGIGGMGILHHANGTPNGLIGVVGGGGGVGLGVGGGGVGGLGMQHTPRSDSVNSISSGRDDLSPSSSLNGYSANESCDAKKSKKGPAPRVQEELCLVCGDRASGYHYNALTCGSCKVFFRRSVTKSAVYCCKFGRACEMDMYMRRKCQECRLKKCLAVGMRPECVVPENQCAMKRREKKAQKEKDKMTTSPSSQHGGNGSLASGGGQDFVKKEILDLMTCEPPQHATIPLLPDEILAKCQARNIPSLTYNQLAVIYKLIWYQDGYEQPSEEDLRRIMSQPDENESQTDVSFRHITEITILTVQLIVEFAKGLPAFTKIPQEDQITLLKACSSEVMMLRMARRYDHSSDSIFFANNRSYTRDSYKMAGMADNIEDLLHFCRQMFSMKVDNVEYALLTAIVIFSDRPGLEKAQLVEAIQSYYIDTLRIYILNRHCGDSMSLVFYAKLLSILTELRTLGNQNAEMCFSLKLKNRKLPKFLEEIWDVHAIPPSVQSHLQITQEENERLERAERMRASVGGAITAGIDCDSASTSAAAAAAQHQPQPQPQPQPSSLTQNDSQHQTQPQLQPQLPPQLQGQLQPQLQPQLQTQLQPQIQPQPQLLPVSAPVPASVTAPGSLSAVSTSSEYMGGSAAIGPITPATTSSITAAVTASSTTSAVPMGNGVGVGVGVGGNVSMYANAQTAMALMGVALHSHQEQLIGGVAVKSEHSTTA", "T1 sequence (P28700 whole entry, further chain, the tested form may be a part)": "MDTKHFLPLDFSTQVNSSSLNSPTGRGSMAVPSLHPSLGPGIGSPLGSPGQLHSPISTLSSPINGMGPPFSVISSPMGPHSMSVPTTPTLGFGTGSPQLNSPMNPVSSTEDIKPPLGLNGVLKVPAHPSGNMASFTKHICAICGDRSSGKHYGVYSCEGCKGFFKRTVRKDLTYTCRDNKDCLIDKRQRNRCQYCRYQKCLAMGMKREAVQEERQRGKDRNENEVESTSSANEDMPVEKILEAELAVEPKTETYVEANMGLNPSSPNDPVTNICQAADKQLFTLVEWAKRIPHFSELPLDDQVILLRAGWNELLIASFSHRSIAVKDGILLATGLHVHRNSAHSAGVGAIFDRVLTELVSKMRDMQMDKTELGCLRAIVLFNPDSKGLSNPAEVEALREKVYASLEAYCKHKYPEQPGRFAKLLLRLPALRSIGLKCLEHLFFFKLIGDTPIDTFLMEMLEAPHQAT", "assay": "Transactivation of reporter genes through switch 1.8 in 3T3 cells", "assay_type": "cell-based", "conditions": "switch 1.8 DmVgRXR + MmRXR, pIND(SP1)LacZ", "excerpt": "(§3) This system was purchased from Invitrogen Corp., Carlsbad, Calif. It comprises a Drosophila melanogaster EcR (“DmEcR”) with a modified DNABD fused to VP16AD and placed under the control of a CMV promoter (SEQ ID NO: 60). Full length MmRXR (SEQ ID NO: 53) was placed under the control of the RSV promoter (SEQ ID NO: 61). The reporter, pIND(SP1)LacZ, contains five copies of a modified ecdysone response element (“EcRE”, E/GRE), three copies of an SP1 enhancer, and a minimal heat shock promoter, all of which were placed upstream to the LacZ reporter gene.\nas §2, §1"}, "[4]": {"tested_on": "CfVgRXR", "assay": "Transactivation of reporter genes through switch 1.10 in 3T3 cells", "assay_type": "cell-based, Choristoneura fumiferana", "conditions": "switch 1.10 CfVgRXR, pIND(SP1)LacZ", "description": "This example was prepared in the same way as switch 1.9 except MmRXR (SEQ ID NO: 53) was deleted.\nas §2, §1"}, "[5]": {"target": "T1, DmVgRXR + MmRXR", "assay": "Transactivation of reporter genes through switch 1.8 in 293 cells", "assay_type": "cell-based", "conditions": "switch 1.8 DmVgRXR + MmRXR, pIND(SP1)LacZ", "excerpt": "as §3\nThe same procedures described for CHO were followed for 293 cells except that the cells were plated in biocoated plates to avoid clumping.\nas §1"}, "[6]": {"tested_on": "GAL4EcR + VP16USP", "assay": "Transactivation of reporter genes through switch 1.2 in CV1 cells", "assay_type": "cell-based, Choristoneura fumiferana", "conditions": "switch 1.2 GAL4EcR + VP16USP, pGAL4RELuc", "description": "This construct was prepared in the same way as in switch 1.1 above except MmRXRDEF was replaced with the D, E and F domains from spruce budworm USP (“CfUSPDEF”; SEQ ID NO: 58). The constructs used in this example are similar to those disclosed in U.S. Pat. No. 5,880,333 except that Choristoneura fumiferana USP rather than Drosophila melanogaster USP was utilized.\n(§4) The same procedures described for NIH3T3 cells were followed for CV1 cells\nas §1"}, "[7]": {"tested_on": "VP16CfEcR", "assay": "Transactivation of reporter genes through switch 1.7 in CV1 cells", "assay_type": "cell-based, Choristoneura fumiferana", "conditions": "switch 1.7 VP16CfEcR, pEcRELuc", "description": "Six ecdysone response elements (“EcRE”; SEQ ID NO: 59) from the hsp27 gene were placed upstream of the promoter and a luciferase gene (SEQ ID NO: 57). This switch most probably uses endogenous RXR.\nas §4, §1"}},
  "data": [
    {"smiles": "CCc1c(OC)cccc1C(=O)NN(C(=O)c1cc(C)cc(C)c1)C(C)(C)C", "note": "[N-(2-ethyl-3-methoxybenzoyl)-N′-(3,5-dimethylbenzoyl)-N′-tert-butylhydrazine]", "values": [
      {"measurement": "Mean Fold Activation with 50 μM N-(2-ethyl-3-methoxybenzoyl)-N′-(3,5-dimethylbenzoyl)-N′-t-butylhydrazine", "setting": "[1]", "result": 27, "unit": "fold"},
      {"measurement": "Mean Fold Activation Through N-(2-ethyl-3-methoxybenzoyl)-N′-(3,5-dimethylbenzoyl)-N′-t-butylhydrazine", "setting": "[2]", "result": 3, "unit": "fold"},
      {"measurement": "Mean Fold Activation Through N-(2-ethyl-3-methoxybenzoyl)-N′-(3,5-dimethylbenzoyl)-N′-t-butylhydrazine", "setting": "[3]", "result": 21, "unit": "fold"},
      {"measurement": "Mean Fold Activation Through N-(2-ethyl-3-methoxybenzoyl)-N′-(3,5-dimethylbenzoyl)-N′-t-butylhydrazine", "setting": "[4]", "result": 2, "unit": "fold"},
      {"measurement": "Mean Fold Activation Through N-(2-ethyl-3-methoxybenzoyl)-N′-(3,5-dimethylbenzoyl)-N′-t-butylhydrazine", "setting": "[5]", "result": 21, "unit": "fold"},
      {"measurement": "Mean Fold Activation Through N-(2-ethyl-3-methoxybenzoyl)-N′-(3,5-dimethylbenzoyl)-N′-t-butylhydrazine", "setting": "[6]", "result": 2, "unit": "fold"},
      {"measurement": "Mean Fold Activation Through N-(2-ethyl-3-methoxybenzoyl)-N′-(3,5-dimethylbenzoyl)-N′-t-butylhydrazine", "setting": "[7]", "result": 1, "unit": "fold"}
    ]}
  ]
}
